Results as given in ChEMBL document CHEMBL1144945, “Development of progesterone receptor antagonists from 1,2-dihydrochromeno[3,4-f]quinoline agonist pharmacophore” (Bioorg Med Chem Lett, 2003).
One block for each compound: values may come before it. Active and inactive are the calls of the source.

Columns and labels:
Progesterone receptor [1] = biological target: T1, Progesterone receptor (Homo sapiens, UniProt P06401); assay: Effective concentration for antagonistic activity towards human progesterone in CV-1 cells; assay type: functional, cell-based
T1 sequence (P06401 whole entry): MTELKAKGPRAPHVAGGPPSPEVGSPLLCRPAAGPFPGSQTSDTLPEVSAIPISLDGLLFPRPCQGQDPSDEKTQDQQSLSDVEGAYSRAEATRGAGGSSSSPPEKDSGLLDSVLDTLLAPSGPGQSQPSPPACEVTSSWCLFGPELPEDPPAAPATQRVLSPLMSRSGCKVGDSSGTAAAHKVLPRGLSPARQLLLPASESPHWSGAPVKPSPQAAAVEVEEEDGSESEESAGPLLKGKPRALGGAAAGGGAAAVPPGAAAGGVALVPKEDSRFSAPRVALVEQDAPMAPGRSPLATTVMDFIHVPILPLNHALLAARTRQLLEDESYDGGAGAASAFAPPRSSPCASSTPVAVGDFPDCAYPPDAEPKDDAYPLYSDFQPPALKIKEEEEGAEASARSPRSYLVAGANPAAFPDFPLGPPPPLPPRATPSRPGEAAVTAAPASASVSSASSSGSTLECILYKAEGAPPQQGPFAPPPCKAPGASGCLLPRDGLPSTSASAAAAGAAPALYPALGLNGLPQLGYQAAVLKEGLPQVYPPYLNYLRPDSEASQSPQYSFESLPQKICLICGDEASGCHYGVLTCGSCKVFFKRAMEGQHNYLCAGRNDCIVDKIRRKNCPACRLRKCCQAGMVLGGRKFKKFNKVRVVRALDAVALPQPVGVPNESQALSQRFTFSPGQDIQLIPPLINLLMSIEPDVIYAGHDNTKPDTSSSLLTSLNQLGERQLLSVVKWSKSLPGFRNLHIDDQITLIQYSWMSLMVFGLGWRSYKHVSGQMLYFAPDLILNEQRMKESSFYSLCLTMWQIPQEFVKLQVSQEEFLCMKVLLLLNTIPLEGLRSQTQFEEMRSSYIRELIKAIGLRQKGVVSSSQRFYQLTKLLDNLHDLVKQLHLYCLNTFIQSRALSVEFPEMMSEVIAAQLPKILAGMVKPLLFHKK

Progesterone receptor [2] = biological target: T1, Progesterone receptor; assay: Effective concentration for human progesterone in T47D human breast cancer cell; assay type: cell-based, Cancer cell lines
Progesterone receptor [3] = biological target: T1, Progesterone receptor; assay: Binding towards human progesterone receptor
[4] = biological target: T2, Progesterone receptor (Homo sapiens) (UniProt P06401); assay: Antagonist efficacy for human progesterone in T47D human breast cancer cell; assay type: functional, cell-based
T2 sequence (whole entry): T1 sequence (P06401 whole entry)

[5] = biological target: T2, Progesterone receptor (Homo sapiens); assay: Agonist efficacy for human progesterone in T47D human breast cancer cell; assay type: functional, cell-based
[6] = biological target: T2, Progesterone receptor (Homo sapiens); assay: Antagonist efficacy for human progesterone in CV-1 cells; assay type: functional, cell-based
Progesterone receptor [7] = biological target: T1, Progesterone receptor; assay: Inhibition of human progesterone in T47D human breast cancer cell; assay type: cell-based
Progesterone receptor [8] = biological target: T1, Progesterone receptor
Description: Inhibition of human progesterone receptor activation in T47D human breast cancer cell.

Glucocorticoid receptor = biological target: T3, Glucocorticoid receptor (Homo sapiens, UniProt P04150); assay: Inhibition of antagonist activity towards glucocorticoid receptor; assay type: functional
T3 sequence (P04150 whole entry): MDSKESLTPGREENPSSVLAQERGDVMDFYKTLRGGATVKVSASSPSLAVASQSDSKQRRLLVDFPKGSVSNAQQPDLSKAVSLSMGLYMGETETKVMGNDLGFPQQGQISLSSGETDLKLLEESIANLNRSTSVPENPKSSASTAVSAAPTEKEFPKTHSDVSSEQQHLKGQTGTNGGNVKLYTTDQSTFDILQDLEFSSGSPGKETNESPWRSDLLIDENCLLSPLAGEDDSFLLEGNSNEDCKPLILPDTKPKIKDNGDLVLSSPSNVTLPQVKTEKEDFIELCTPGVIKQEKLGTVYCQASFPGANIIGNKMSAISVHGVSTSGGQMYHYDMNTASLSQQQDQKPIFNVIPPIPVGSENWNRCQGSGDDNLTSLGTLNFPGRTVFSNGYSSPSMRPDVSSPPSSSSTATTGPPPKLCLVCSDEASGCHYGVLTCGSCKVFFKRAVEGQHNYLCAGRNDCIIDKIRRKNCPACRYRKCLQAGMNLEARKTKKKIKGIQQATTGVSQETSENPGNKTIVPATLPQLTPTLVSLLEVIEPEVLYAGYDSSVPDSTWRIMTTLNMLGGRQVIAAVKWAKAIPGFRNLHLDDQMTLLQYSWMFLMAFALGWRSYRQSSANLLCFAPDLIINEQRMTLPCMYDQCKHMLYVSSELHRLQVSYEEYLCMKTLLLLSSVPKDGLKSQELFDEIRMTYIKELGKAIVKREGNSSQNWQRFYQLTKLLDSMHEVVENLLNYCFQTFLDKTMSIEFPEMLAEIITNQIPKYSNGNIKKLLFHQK

Androgen receptor = biological target: T4, Androgen receptor (Homo sapiens, UniProt P10275)
T4 sequence (P10275 whole entry): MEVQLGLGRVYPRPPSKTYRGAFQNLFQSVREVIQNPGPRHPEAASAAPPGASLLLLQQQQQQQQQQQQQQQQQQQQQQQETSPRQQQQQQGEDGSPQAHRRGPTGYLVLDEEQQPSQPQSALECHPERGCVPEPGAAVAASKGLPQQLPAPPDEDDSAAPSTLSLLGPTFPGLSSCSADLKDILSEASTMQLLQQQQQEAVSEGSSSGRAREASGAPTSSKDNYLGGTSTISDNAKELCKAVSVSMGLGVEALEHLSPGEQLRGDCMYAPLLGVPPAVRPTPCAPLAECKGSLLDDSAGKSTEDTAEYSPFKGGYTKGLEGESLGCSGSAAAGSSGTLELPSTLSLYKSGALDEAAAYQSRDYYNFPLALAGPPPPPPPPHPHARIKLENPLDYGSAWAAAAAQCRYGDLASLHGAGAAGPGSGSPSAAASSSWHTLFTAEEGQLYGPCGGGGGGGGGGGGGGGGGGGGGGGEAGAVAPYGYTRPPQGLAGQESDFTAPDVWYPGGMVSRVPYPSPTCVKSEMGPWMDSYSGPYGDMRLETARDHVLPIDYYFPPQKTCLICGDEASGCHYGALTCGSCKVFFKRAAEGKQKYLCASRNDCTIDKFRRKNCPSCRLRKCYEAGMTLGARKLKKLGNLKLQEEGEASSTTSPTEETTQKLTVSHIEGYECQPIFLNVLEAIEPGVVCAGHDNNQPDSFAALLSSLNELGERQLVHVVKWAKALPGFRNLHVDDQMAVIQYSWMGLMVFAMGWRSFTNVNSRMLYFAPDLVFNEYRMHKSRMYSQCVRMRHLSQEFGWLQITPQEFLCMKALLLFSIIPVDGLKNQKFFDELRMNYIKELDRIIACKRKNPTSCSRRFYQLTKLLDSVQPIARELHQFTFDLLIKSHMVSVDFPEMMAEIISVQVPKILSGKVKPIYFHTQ
Description: Inhibition of antagonist activity towards Androgen receptor

Progesterone receptor [9] = biological target: T1, Progesterone receptor; remark: listed apart in the source
Description: Binding affinity at human progesterone receptor.

[10] = biological target: T5, Mineralocorticoid receptor (Homo sapiens, UniProt P08235); assay: Inhibition of antagonist activity towards mineralocorticoid receptor (hMR); Not active; assay type: functional
T5 sequence (P08235 whole entry): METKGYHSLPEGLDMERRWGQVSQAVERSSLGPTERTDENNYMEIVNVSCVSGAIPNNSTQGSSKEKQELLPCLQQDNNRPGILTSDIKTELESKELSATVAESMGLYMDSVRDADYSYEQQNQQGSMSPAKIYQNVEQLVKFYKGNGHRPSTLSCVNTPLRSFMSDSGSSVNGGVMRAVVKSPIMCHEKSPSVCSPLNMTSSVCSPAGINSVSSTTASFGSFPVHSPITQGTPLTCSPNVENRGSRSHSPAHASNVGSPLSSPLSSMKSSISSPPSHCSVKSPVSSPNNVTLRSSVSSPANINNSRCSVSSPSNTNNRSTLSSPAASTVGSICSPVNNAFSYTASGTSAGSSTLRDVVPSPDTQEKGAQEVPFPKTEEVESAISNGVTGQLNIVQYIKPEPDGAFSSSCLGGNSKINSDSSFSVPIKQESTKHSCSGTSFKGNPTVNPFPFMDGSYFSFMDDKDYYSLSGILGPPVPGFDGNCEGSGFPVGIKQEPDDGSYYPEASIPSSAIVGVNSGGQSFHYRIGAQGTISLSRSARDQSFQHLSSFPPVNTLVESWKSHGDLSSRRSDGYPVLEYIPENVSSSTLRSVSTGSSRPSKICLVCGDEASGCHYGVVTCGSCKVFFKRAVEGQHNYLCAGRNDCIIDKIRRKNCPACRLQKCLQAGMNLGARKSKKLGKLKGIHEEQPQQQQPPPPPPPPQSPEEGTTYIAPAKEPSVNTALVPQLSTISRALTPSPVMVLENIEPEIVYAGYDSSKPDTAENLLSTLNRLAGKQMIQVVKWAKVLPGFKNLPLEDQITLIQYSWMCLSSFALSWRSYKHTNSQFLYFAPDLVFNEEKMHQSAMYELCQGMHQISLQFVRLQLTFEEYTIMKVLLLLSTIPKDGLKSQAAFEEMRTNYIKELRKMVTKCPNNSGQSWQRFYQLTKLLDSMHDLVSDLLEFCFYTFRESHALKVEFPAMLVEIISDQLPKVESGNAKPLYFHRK

[11] = biological target: T6, Mineralocorticoid receptor (Homo sapiens) (UniProt P08235); assay: Antagonist efficacy for mineralocorticoid receptor (hMR); Not active; assay type: functional
T6 sequence (whole entry): T5 sequence (P08235 whole entry)

Progesterone receptor [12] = biological target: T1, Progesterone receptor; remark: listed apart in the source
Description: Antagonistic activity at human progesterone receptor in CV-1 cells.

Progesterone receptor [13] = biological target: T1, Progesterone receptor; remark: listed apart in the source
[14] = biological target: Estrogen receptor (Homo sapiens) (UniProt Q92731+P03372); assay: Antagonist efficacy for Estrogen receptor; Not active; assay type: functional
[15] = biological target: T2, Progesterone receptor (Homo sapiens); assay: Agonist efficacy for human progesterone receptor in T47D human breast cancer cell; not active (<20% efficacy and/or >10 mM potency); assay type: functional, cell-based
Progesterone receptor [16] = biological target: T1, Progesterone receptor; assay: Inhibition of human progesterone receptor in T47D human breast cancer cell; not active (<20% efficacy and/or >10 mM potency); assay type: cell-based
Progesterone receptor [17] = biological target: T1, Progesterone receptor; assay: Effective concentration for antagonistic activity towards human progesterone receptor in CV-1 cells; not active (<20% efficacy and/or >10 mM potency); assay type: functional, cell-based
[18] = biological target: T2, Progesterone receptor (Homo sapiens); assay: Antagonist efficacy for human progesterone receptor in CV-1 cells; not active (<20% efficacy and/or >10 mM potency); assay type: functional, cell-based
Progesterone receptor [19] = biological target: T1, Progesterone receptor; assay: Effective concentration for human progesterone receptor in T47D human breast cancer cell; not active (<20% efficacy and/or >10 mM potency); settings: cancer cell lines
[20] = biological target: T2, Progesterone receptor (Homo sapiens); assay: Effective concentration against human progesterone receptor in T47D human breast cancer cell; not active (<20% efficacy and/or >10 mM potency); assay type: cell-based; settings: Cancer cell lines
[21] = biological target: T6, Mineralocorticoid receptor (Homo sapiens); assay: Antagonist efficacy for mineralocorticoid receptor (hMR); assay type: functional
[22] = biological target: T5, Mineralocorticoid receptor; assay: Inhibition of antagonist activity towards mineralocorticoid receptor (hMR); assay type: functional
Progesterone receptor [23] = biological target: T1, Progesterone receptor; assay: Effective concentration for human progesterone in T47D human breast cancer cell; not active (<20% efficacy and/or >10 mM potency); assay type: cell-based; settings: cancer cell lines

SMILES: COc1ccc2c(c1)OCc1c-2ccc2c1C(C)=CC(C)(C)N2
- EC50 (Progesterone receptor [1]): 193 nM
- EC50 (Progesterone receptor [2]): > 1000 nM
- Ki (Progesterone receptor [3]): 357 nM
- Efficacy [4]: 83%
- Efficacy [5]: 24%
- Efficacy [6]: 85%
- IC50 (Progesterone receptor [7]): 514 nM

SMILES: CC1=CC(C)(C)Nc2ccc3c(c21)COc1cc(C(F)(F)F)ccc1-3
- Efficacy [15]: inactive
- IC50 (Progesterone receptor [16]): Not Active
- Ki (Progesterone receptor [9]): > 1000 nM
- EC50 (Progesterone receptor [17]): Not Active
- Efficacy [18]: inactive
- EC50 (Progesterone receptor [19]): Not Active

SMILES: CN(C)c1ccc([C@H]2C[C@]3(C)[C@@H](CC[C@]3(O)CCCO)[C@@H]3CCC4=CC(=O)CCC4=C32)cc1 [ONAPRISTONE]
- Activity [15]: inactive
- Activity [20]: inactive
- Efficacy [21]: 49%
- IC50 [22]: 470 nM

More lines, now with the values ahead:

- IC50 (Progesterone receptor [8]): 485 nM
- IC50 (Glucocorticoid receptor): 1930 nM
- IC50 (Androgen receptor): 395 nM
- Ki (Progesterone receptor [9]): 15 nM
- IC50 [10]: Not Active
- Efficacy [11]: inactive
- EC50 (Progesterone receptor [12]): 45 nM
- EC50 (Progesterone receptor [13]): 552 nM
- Efficacy [14]: inactive
SMILES: CC1=CC(C)(C)Nc2ccc3c(c21)COc1ccc(Br)cc1-3

- EC50 (Progesterone receptor [1]): 1870 nM
- Ki (Progesterone receptor [3]): > 1000 nM
- Efficacy [6]: 86%
SMILES: CC1=CC(C)(C)Nc2ccc3c(c21)COc1c(Br)cc(Br)cc1-3

- IC50 (Progesterone receptor [8]): 782 nM
- Efficacy [15]: inactive
- EC50 (Progesterone receptor [12]): 576 nM
- EC50 (Progesterone receptor [23]): Not Active
SMILES: CC1=CC(C)(C)Nc2ccc3c(c21)COc1c(Cl)cccc1-3

- IC50 (Progesterone receptor [8]): 149 nM
- IC50 (Glucocorticoid receptor): 194 nM
- IC50 (Androgen receptor): 60 nM
- Ki (Progesterone receptor [9]): 4.5 nM
- IC50 [10]: Not Active
- Efficacy [11]: inactive
- EC50 (Progesterone receptor [12]): 16.7 nM
- EC50 (Progesterone receptor [13]): 86 nM
- Efficacy [14]: inactive
SMILES: CC1=CC(C)(C)Nc2ccc3c(c21)COc1c(F)cc(C#N)cc1-3
